In patent publication US11396493B2, “Amorphous pyrrolidine derivative as PPAR agonist and preparation method thereof” (GUANGDONG RAYNOVENT BIOTECH CO., LTD., priority 2017, dated 2022):

Key:
PPAR Alpha = biological target: T1, PPAR Alpha (Homo sapiens, UniProt Q07869); assay: PathHunter NHR protein interaction test, agonist mode, PPAR Alpha; assay type: cell-based
T1 sequence (Q07869 1-468): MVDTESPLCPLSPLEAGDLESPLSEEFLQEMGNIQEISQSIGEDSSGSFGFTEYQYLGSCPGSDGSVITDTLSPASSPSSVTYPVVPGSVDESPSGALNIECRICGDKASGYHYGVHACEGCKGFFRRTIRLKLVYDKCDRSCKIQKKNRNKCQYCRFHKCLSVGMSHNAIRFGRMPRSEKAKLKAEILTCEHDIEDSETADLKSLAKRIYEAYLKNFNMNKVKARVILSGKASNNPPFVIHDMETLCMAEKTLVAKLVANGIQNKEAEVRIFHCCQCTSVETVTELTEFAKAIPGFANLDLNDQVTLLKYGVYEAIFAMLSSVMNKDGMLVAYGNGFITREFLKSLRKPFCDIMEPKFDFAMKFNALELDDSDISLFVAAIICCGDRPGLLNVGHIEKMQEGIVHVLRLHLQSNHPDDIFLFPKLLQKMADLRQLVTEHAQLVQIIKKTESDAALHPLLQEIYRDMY
Excerpt: (§1) Principles of in Vitro Test of PPAR Agonist Activity
(§2) Nuclear Hormone Receptor (NHR) Test
(§3) PathHunter's NHR protein interaction and nuclear transfer test are used to detect the activation ability of nuclear hormone receptor in a uniform, non-imaging experiment. This technology is called as enzyme fragment complementation […], and is developed by DiscoverX.
(§4) NHR protein test is based on the detection of the protein-protein interaction between a standard length of NHR protein in an activated state and a nuclear fusion protein containing a steroid receptor co-activating peptide (SRCP) region and one or more standard LXXLL acting sequences.
(§5) NHR is labeled on the ProLink™ component of an EFC test system, and the SRCP region and the enzyme receptor component (EA) are fused and expressed in the nucleus. When bound to the ligand, the NHR will transfer to the nucleus and obtain the SRCP region in which a complementary effect is produced, thereby generating an equivalent amount of activated-galactosidase (-Gal), accompanied by the generation of chemical light signals. The benefits associated with this pathway include reduced incubation time of the compound, direct test of an NHR target, use of human NHR sequences with a standard length, and selection of some new classes of compounds based on the disruption of protein-protein interactions.
(§6) The NHR NT test detected the transfer of an NHR between the cytoplasmic and nuclear compartments. The receptor was labeled on the ProLink™ component of the EFC test system, while the EA and nuclear sequence were fused, thereby limiting the expression of EA on the nucleus. Nucleus transfer leaded to the complementary effect with EA, thereby generating one equivalent of activated galactosidase (-Gal), accompanied by the generation of chemical light signals.
(§7) 1. PathHunter NHR cell strains were spread from a frozen stock in accordance with standard operations.
(§8) 2. Cells were seeded onto a 384-well white cell plate of 20 uL/well, and incubated at 37° C. for an appropriate time prior to test. The culture medium contained activated carbon dextran with filtered serum to reduce the level of hormone expression.
(§9) Experiments of Agonist Mode:
(§10) 1. As for the measurement of an agonist activity, it is required to incubate the cells with the compound to induce a response.
2. […]
(§11) 2. The chemiluminescence signals generated by the microplate were to be detected by a PerkinElmer Envision instrument.
(§12) 1. The activity of the compound was analyzed by CIBS data analysis software (ChemInnovation, CA).
(§13) 2. For experiments of agonist mode, the percentage activity is calculated by the following formula: % activity=100%×(the mean RLU of the compound to be tested−the mean background RLU of the medium)/(the mean of maximum control of the ligand−the mean background RLU of the medium)

PPAR Delta = biological target: T2, PPAR Delta (Homo sapiens, UniProt Q03181); assay: PathHunter NHR protein interaction test, agonist mode, PPAR Delta; assay type: cell-based
T2 sequence (Q03181 1-441): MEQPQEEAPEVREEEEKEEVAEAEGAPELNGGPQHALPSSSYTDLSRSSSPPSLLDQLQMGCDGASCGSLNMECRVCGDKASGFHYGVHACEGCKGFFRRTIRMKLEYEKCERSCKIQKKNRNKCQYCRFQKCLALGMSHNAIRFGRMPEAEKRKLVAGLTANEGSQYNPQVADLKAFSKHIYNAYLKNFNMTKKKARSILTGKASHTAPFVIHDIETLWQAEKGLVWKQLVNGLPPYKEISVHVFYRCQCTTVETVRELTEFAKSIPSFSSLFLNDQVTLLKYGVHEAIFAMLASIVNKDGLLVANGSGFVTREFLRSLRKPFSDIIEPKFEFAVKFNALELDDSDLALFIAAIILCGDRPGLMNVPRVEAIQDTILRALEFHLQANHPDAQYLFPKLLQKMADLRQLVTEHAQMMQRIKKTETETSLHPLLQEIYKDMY
Excerpt: as §1, §2, §3, §4, §5, §6, §7, §8, §9, §10
2. […]
as §11, §12, §13

[1] = tested on: CCl4-induced C57BL/6 mouse acute liver injury; assay: CCl4-induced C57BL/6 mouse acute liver injury experiment; assay type: in vivo; settings: no data shown
PPAR Gamma = biological target: T3, PPAR Gamma (Homo sapiens, UniProt P37231); assay: PathHunter NHR protein interaction test, agonist mode, PPAR Gamma; assay type: cell-based
T3 sequence (P37231 1-505): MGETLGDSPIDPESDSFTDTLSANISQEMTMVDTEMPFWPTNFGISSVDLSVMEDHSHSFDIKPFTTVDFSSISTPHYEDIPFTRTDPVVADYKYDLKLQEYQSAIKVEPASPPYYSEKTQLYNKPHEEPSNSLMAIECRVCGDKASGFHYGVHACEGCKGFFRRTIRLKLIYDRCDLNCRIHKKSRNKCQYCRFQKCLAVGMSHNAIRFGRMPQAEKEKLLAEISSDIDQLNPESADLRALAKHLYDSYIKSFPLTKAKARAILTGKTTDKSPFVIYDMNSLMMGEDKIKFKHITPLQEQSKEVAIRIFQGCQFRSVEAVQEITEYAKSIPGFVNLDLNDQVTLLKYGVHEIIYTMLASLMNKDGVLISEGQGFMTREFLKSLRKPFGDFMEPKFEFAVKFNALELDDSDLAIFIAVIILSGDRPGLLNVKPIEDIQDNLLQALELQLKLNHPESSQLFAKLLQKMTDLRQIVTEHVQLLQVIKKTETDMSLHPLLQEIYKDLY
Excerpt: as §1, §2, §3, §4, §5
The NHR NT test detected the transfer of an NHR between the cytoplasmic and nuclear compartments. […]
as §11, §12, §13

[2] = tested on: MCD diet-induced db/db mouse NASH; assay: MCD diet-induced db/db mouse NASH model; assay type: in vivo; settings: no data shown

EC50 (PPAR Alpha; agonist mode): < 100 nM
activation effect on PPAR Alpha receptor (PPAR Alpha; summary of Table 5): significant activation effect
EC50 (PPAR Delta; agonist mode): < 100 nM
activation effect on PPAR Delta receptor (PPAR Delta; summary of Table 5): significant activation effect
EC50 (PPAR Gamma; agonist mode): > 250 nM
activation effect on PPAR Gamma receptor (PPAR Gamma; summary of Table 5): selective activation effect
Compound: CSc1ccc(C(=O)[C@@H]2CN(C(=O)Oc3ccccc3)C[C@H]2Cc2cc(C)c(OC(C)(C)C(=O)O)c(C)c2)cc1 [Compound of formula (I)]
effect on liver injury [1]: significantly improving effect
effect on NAS Score [2]: significantly improving effect
effect on liver fibrosis [2]: significantly improving effect
